Results: patent US20220089602A1, “COMPOUNDS THAT INDUCE FERROPTIC CELL DEATH” (The Board of Trustees of the University of Illinois, priority 2019, published 2022)

Tests used:
ES-2 cells [1] = assay: Mitochondrial ROS production (MitoSOX Red); assay type: cell-based; settings: 1 hr
Experimental: ES-2 cells (1×10^5 cells/mL) were plated in 12-well plates and allowed to attach overnight. Cells were treated for 1 hr with DMSO, 10 and 25 μM ferroptocide, 5 μM IB-DNQ, and 10 μM rotenone. Cells were washed with HBSS and incubated in the dark for 10 min with 5 μM MitoSOX Red probe. Cells were then washed 2× with HBSS and harvested at 1000×g, 3 min. After resuspension in 500 μl HBSS buffer, samples were analyzed with flow cytometry to record ten thousand events per sample in the PE channel in BD LSR II Flow Cytometer (BD Bioscience). FCS express V6 De Novo software was used to generate the histogram.

[2] = In vitro glutathione assay (LC-MS); assay type: physicochemical; settings: 100 μM compound, 5 mM glutathione, PBS, 37° C.
Experimental: To an eppendorf tube added, 245 μL of 1×PBS, 5 μL of 10 mM DMSO stock of ferroptocide or P23 and 250 μL of reduced GSH (5 mM final concentration). Reactions were vortexed briefly and incubated at 37° C. Adduct formation was monitored at the indicated time points (0, 0.5, 1, 2, 3, 24 hr) by mixing an aliquot of 50 μL from the reaction mixture with 50 μL of MeOH before LC/MS analysis.

HCT 116 cells [3] = assay: Speed of cell death, AV/PI flow cytometry; assay type: cell-based
Experimental: (§1) ES-2, HCT 116, Mia PaCa-2, A549, and 4T1 cells (1×10^5 cells/mL) were plated overnight in 12 well plates, prior to addition of compounds. For protection studies, samples were pre-treated with each protecting agent such as 25 μM Q-VD-OPh, 250 μM trolox, 2 μM ferrostatin-1, 5 mM NAC-1 (neutralized pH), or 100 μM deferoxamine (DFO) for two hours or 1 hr (NAC-1) before compound addition. Cells were incubated for the appropriate times and harvested for flow cytometry analysis. Cell pellets were resuspended in binding buffer (10 mM HEPES, pH 7.4, 140 mM NaCl, 2.5 mM CaCl2) containing 2 μg/mL propidium iodide and 5 μL/mL Annexin V-FITC conjugate antibody and analyzed for cell viability after gating for forward and side scattering. Ten thousand events were collected per sample in BD LSR II Flow Cytometer (BD Bioscience) and FCS express V6, De Novo software was used to perform experimental analysis.

ES-2 cells [4] = assay: Speed of cell death, AV/PI flow cytometry; assay type: cell-based; settings: 10 μM, ES-2, AV/PI
Experimental: as §1

A549 cells = assay: Speed of cell death, AV/PI flow cytometry; assay type: cell-based; settings: each at 10 μM, A549 (K-RAS mutant)
Experimental: as §1

Mia PaCa-2 cells = assay: Speed of cell death, AV/PI flow cytometry; assay type: cell-based; settings: 10 μM, Mia PaCa-2, AV/PI
Experimental: as §1

HCT 116 cells [5] = assay: Cellular lipid ROS production (C11-BODIPY); assay type: cell-based; settings: 10 μM
Experimental: (§2) ES-2, HCT 116, and 4T1 cells (1×10^5 cells/mL) were plated in 12-well plates. Cells were pre-treated for 2 hr with 100 μM deferoxamine followed by treatment with DMSO, 10 μM ferroptocide, 10 μM RSL3, or 100 μM TBHP for 1 hr, 1.5 hr and 2 hr respectively. Cells were washed with HBSS and incubated in the dark for 20 min with 5 μM C11-BODIPY probe. Cells were then washed 2× with HBSS and harvested at 1000×g, 3 min. After resuspension in 500 μl HBSS buffer, samples were analyzed with flow cytometry to record ten thousand events per sample in FL1 channel in BD LSR II Flow Cytometer (BD Bioscience). FCS express V6 De Novo software was used to generate histograms.

ES-2 cells [6] = assay: Cellular lipid ROS production (C11-BODIPY); assay type: cell-based; settings: 10 μM
Experimental: as §2

red blood cells = assay: Hemolysis assay; assay type: cell-based, human; settings: 2 hr treatment with 333 μM
Experimental: Whole human blood in citrate phosphate dextrose was obtained from Bioreclamation LLC, stored at 4° C. and used before expiration date. 100 μL of whole blood was combined with 500 μL saline (0.9% NaCl) and centrifuged for 5 min at 300×g. The supernatant was carefully removed from the erythrocyte pellet and the liquid was discarded. Washed pellet 3× in 500 μL saline. The erythrocyte pellet was resuspended in 800 μL of Red Blood Cell Buffer (10 mM Na2HPO4, 150 mM NaCl, 1 mM MgCl2, pH 7.4). To a 0.5 mL eppendorf tube or a PCR plate was added 1.0 μL of 30× compound in DMSO and 19 μL RBC Buffer. For negative controls, 1.0 μL DMSO was combined with 19 μL RBC buffer. For positive controls, either 20 μL MilliQ H2O or 1.0 μL 30% Triton X-100 were combined with 19 μL RBC Buffer. Tubes or plates were briefly centrifuged. Next, 10 μL of washed erythrocyte suspension was added to each tube, then sealed. After incubation at 37° C. for 2 h, samples were centrifuged for 5 min at 300×g, and 20 μL of supernatant was carefully removed and transferred to wells of a clear flat-bottomed 384-well plate. Absorbance was measured at 540 nm. The data were plotted as compound concentration versus percent hemolysis, and fitted to OriginPro (OriginLab, Northampton, Mass.).

[7] = tested on: 4T1 triple negative breast cancer cells; assay: 4T1 syngeneic subcutaneous tumor model, immunocompetent mice; assay type: in vivo; settings: 50 mg/kg i.p., twice a week, five doses, Balb/c
Experimental: The protocol was approved by the IACUC at the University of Illinois at Urbana-Champaign (Protocol Number: 17192). 9-week old female Balb/C or SCID mice (Charles River) were lightly sedated with i.p. xylazine/ketamine/saline solution. Following sedation, 4T1 murine breast cancer cells suspended in chilled HBSS (100 μL of 4×10^6 cells/mL) were injected subcutaneously into the right flank of shaved and sedated mice using an insulin syringe. On day 8 after inoculation, mice were randomized with 7 mice per group for vehicle or ferroptocide treatment. Vehicle (PEG400) or ferroptocide (50 mg/kg) was administered intraperitoneally as a PEG400 solution twice a week for 5 times. Tumor measurements were performed every 3 or 4 days using a caliper and tumor volume was calculated using the equation (0.5×l×w^2). On day 23 after the 4T1 cells inoculation, mice were sacrificed. Tumors were then surgically removed, and their mass was measured.

C[C@@H]1CC[C@@]23C[C@H](O)C(=O)[C@@]2(O)[C@]1(C)[C@H](OC(=O)CCl)C[C@@H](C1=CCn2c(=O)n(-c4ccccc4)c(=O)n2C1)[C@@H]3C [Compound P18, ferroptocide]
mitochondrial ROS (ES-2 cells [1]): increase of mitochondrial ROS
reactivity with excess glutathione (in words) [2]: reacts slowly
Compound remaining (%) ([2]; 0.5 hr): 95.1%
GSH-Ferroptocide adduct (%) ([2]; 0.5 hr): 4.9%
Compound remaining (%) ([2]; 1 hr): 81.8%
GSH-Ferroptocide adduct (%) ([2]; 1 hr): 18.2%
GSH-Ferroptocide adduct (%) ([2]; 2 hr): 33.2%
Compound remaining (%) ([2]; 2 hr, listed as Ferroptocide): 66.8%
Compound remaining (%) ([2]; 2 hr, listed as ferroptocide): 67%
Compound remaining (%) ([2]; 3 hr): 61.9%
GSH-Ferroptocide adduct (%) ([2]; 3 hr): 38.1%
Compound remaining (%) ([2]; 24 hr): 27.5%
GSH-Ferroptocide adduct (%) ([2]; 24 hr): 72.5%
time to 50% cell death (HCT 116 cells [3]; 10 μM, HCT 116, AV/PI): 7 h
cell death versus erastin and RSL3 (HCT 116 cells [3]; each at 10 μM, HCT 116 (K-RAS mutant)): inducing more quantitative cell death than the other tool compounds
time to 50% cell death (ES-2 cells [4]): 1 h
cell death versus erastin and RSL3 (A549 cells): inducing more quantitative cell death than the other tool compounds
time to 50% cell death (Mia PaCa-2 cells; listed as Ferroptocide): 2 h
time to 50% cell death (Mia PaCa-2 cells; listed as ferroptocide): 1.5 h
lipid ROS (HCT 116 cells [5]): induces lipid ROS
lipid ROS (ES-2 cells [6]): induces lipid ROS
hemolytic activity (red blood cells; listed as Ferroptocide): no hemolytic activity
hemolytic activity (red blood cells; listed as ferroptocide): Lack of hemolytic activity
effect on subcutaneous 4T1 tumor growth (in words) [7]: inhibits subcutaneous 4T1 tumor growth
tumor growth retardation (tumor volume) ([7]; compared to vehicle): 40%
